From PubChem BioAssay (NCI)
Where “and” joins values, the source holds several entries; their conditions need not be identical. Equal values may be shown once.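 96-well plates; 48 h exposure; 5 concentrations. Endpoints by linear interpolation between flanking doses. Not reached: highest tested concentration assigned. Here, GI50 denotes the concentration required for 50% inhibition of growth. TGI is the concentration that stops growth completely.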

Legend:
Assay in all cases: growth of human tumour cells (NCI), 48 h
NCI/ADR-RES ovarian = system: NCI/ADR-RES ovarian
NCI-H522 lung = system: NCI-H522 lung
HOP-62 NSCLC = system: HOP-62 NSCLC
U251 CNS = system: U251 CNS
786-0 renal = system: 786-0 renal
OVCAR-5 ovarian = system: OVCAR-5 ovarian
OVCAR-4 ovarian = system: OVCAR-4 ovarian
OVCAR-3 ovarian = system: OVCAR-3 ovarian
IGROV1 ovarian = system: IGROV1 ovarian
K-562 leukemia = system: K-562 leukemia

SMILES	GI50 (NCI/ADR-RES ovarian)	TGI (NCI/ADR-RES ovarian)	GI50 (NCI-H522 lung)	TGI (NCI-H522 lung)	GI50 (HOP-62 NSCLC)	TGI (HOP-62 NSCLC)	GI50 (U251 CNS)	TGI (U251 CNS)	GI50 (786-0 renal)	TGI (786-0 renal)	GI50 (OVCAR-5 ovarian)	TGI (OVCAR-5 ovarian)	GI50 (OVCAR-4 ovarian)	TGI (OVCAR-4 ovarian)	GI50 (OVCAR-3 ovarian)	TGI (OVCAR-3 ovarian)	GI50 (IGROV1 ovarian)	TGI (IGROV1 ovarian)	TGI (K-562 leukemia)	GI50 (K-562 leukemia)
COc1cc2c(cc1C)NC(=O)/C2=C\c1ccc(Oc2ccccc2)cc1	17.4 µM	36.5 µM	12.4 µM	42 µM	16.9 µM	31 µM	12.8 µM	25.4 µM	12 µM	24.8 µM	18.7 µM	36.5 µM	16.4 µM	29.9 µM	17.2 µM	34.3 µM	15.7 µM	36.9 µM	–	–
O=C1c2ccccc2N1C(=O)c1ccccc1[N+](=O)[O-]	–	–	–	> 100 µM	–	> 100 µM	–	> 100 µM	–	> 100 µM	–	> 100 µM	–	> 100 µM	–	88.4 µM	–	> 100 µM	> 100 µM	–
CC1(C)CC(=O)C(C(=O)Nc2cccs2)=C(O)C1	–	–	–	> 100 µM	–	> 100 µM	–	> 100 µM	–	> 100 µM	–	> 100 µM	–	> 100 µM	–	> 100 µM	–	> 100 µM	> 100 µM	–
C/C(=C\c1csc(C)n1)[C@@H]1C[C@@H]2O[C@]2(C)CCC[C@H](C)[C@H](O)[C@@H](C)C(=O)C(C)(C)[C@@H](O)CC(=O)N1	0.000206 µM	0.000412 µM	7.57e-05 µM	0.00019 µM	0.000352 µM	0.000508 µM	0.000147 µM	0.000391 µM	0.000182 µM	0.000356 µM	0.000262 µM	0.000447 µM	0.000318 µM	0.000821 µM	0.000158 µM	0.000377 µM	–	–	0.00033 µM	0.000106 µM
N#Cc1c(CC(=O)O)cc(=O)n2c1[nH]c1ccccc12	–	–	–	–	–	> 100 µM	–	> 100 µM	–	> 100 µM	–	> 100 µM	–	> 100 µM	–	> 100 µM	–	> 100 µM	> 100 µM	–
CCC12C=C(C(=O)OC)N3c4ccccc4C4CCN(CCC1)C2C43 (stereo not drawn)	–	–	–	> 100 µM	–	99.8 µM	–	> 100 µM	–	60.9 µM	–	> 100 µM	–	> 100 µM	–	> 100 µM	–	> 100 µM	> 100 µM	–
CNS(=O)(=O)NNS(=O)(=O)c1ccc(C)cc1	–	–	–	> 100 µM	–	> 100 µM	–	–	–	> 100 µM	–	> 100 µM	–	> 100 µM	–	> 100 µM	–	> 100 µM	> 100 µM	–
CCCCCNC(=O)CCCCCCCCCCCNC(=O)CCCCCCCCCCN1C=CC(=CC=C2C=CC(=O)C=C2)C=C1	–	–	–	> 100 µM	–	> 100 µM	–	> 100 µM	–	> 100 µM	–	> 100 µM	–	> 100 µM	–	> 100 µM	–	> 100 µM	> 100 µM	–
O=C1c2ccccc2C2(O)N(c3ccccc3)C(=S)N(c3ccccc3)C12O (stereo not drawn)	–	–	–	> 100 µM	–	> 100 µM	–	> 100 µM	–	> 100 µM	–	> 100 µM	–	> 100 µM	–	> 100 µM	–	> 100 µM	> 100 µM	–
O=C1c2ccccc2-c2c1c1c(O)cccc1n2Cc1ccccc1	6.5 µM	33.6 µM	40 µM	> 100 µM	12.1 µM	29.8 µM	15.2 µM	67.1 µM	15.6 µM	31.9 µM	16.4 µM	51.2 µM	7.14 µM	43.9 µM	4.17 µM	17.3 µM	–	–	> 100 µM	22.8 µM
CC(=O)NC(CCCNC(=O)OCc1ccccc1)C(=O)NCc1ccccc1 (stereo not drawn)	–	–	–	> 100 µM	–	> 100 µM	–	> 100 µM	–	> 100 µM	–	> 100 µM	–	> 100 µM	–	> 100 µM	–	> 100 µM	> 100 µM	–
ON1CCc2c([nH]c3ccccc23)C1c1ccc(Cl)cc1 (stereo not drawn)	–	–	–	60 µM	–	> 100 µM	–	29.8 µM	–	> 100 µM	–	99.1 µM	–	–	–	74.5 µM	–	–	> 100 µM	–
COc1cc2c(Oc3ccc(-c4cnc(Nc5ccc(F)cc5)n(C)c4=O)cc3F)ccnc2cc1OCCCN1CCOCC1	1.94 µM	6.75 µM	–	–	–	–	1.66 µM	3.2 µM	1.54 µM	3.1 µM	1.04 µM	2.45 µM	1.74 µM	7.49 µM	1.64 µM	3.15 µM	0.646 µM	2.33 µM	–	–
Nc1ccccc1C(=O)/C=C/c1ccccc1O	–	–	–	> 100 µM	–	> 100 µM	–	> 100 µM	–	> 100 µM	–	> 100 µM	–	> 100 µM	–	> 100 µM	–	> 100 µM	93.4 µM	–
CC(C)(C)C1CCC(O)(c2ccccc2)CC1 (stereo not drawn)	–	–	–	> 100 µM and 55.1 µM	–	> 100 µM	–	> 100 µM and 32.3 µM	–	> 100 µM and 41.6 µM	–	> 100 µM	–	–	–	> 100 µM and 41.7 µM	–	> 100 µM and 81.5 µM	> 100 µM and 68.2 µM	–
CN1S(=O)(=O)N(C)P12(N=P(CP(=NP13(N(C)S(=O)(=O)N1C)N(C)S(=O)(=O)N3C)(c1ccccc1)c1ccccc1)(c1ccccc1)c1ccccc1)N(C)S(=O)(=O)N2C	–	–	–	> 100 µM	–	> 100 µM	–	> 100 µM	–	> 100 µM	–	> 100 µM	–	–	–	> 100 µM	–	> 100 µM	> 100 µM	–
CCN1CCN(CC(=O)Nc2nc3ccc(NCc4ccc(Br)cc4)cc3s2)CC1	3.3 µM	> 100 µM	–	–	–	–	1.92 µM	3.79 µM	1.85 µM	3.5 µM	–	–	3.19 µM	26.8 µM	–	–	–	–	–	–
CCOC(=O)C1(C)CCC(C(=O)OC)C1=O (stereo not drawn)	–	–	–	31.7 µM	–	> 100 µM	–	> 100 µM	–	> 100 µM	–	> 100 µM	–	> 100 µM	–	> 100 µM	–	> 100 µM	> 100 µM	–
O=C1Nc2ccc(Cl)cc2/C1=N/c1nc(-c2ccc(Cl)cc2)cs1	–	–	–	–	–	–	1.7 µM	4.65 µM	1.46 µM	3.7 µM	1.91 µM	4.43 µM	1.39 µM	> 100 µM	1.3 µM	4.56 µM	–	–	> 100 µM	1.6 µM
O=c1c2cc(Br)ccc2nc(CNc2ccccc2)n1-c1ccccc1	–	–	–	19.9 µM	–	> 60.6 µM	–	31.8 µM	–	28.4 µM	–	> 100 µM	–	23 µM	–	48.5 µM	–	36.8 µM	58.1 µM	–
